Data set [1] addresses T1, PCAF (Homo sapiens, UniProt Q92831).
T1 construct: gene KAT2B
On the set-up: Intact protein LC/MS covalent labelling, fragments in pools of five, 200 uM each, 4 °C. Particulars: 24 h, 4 °C, pool of five; 200 µM; covalent.

The target of data set [2] is T2, OTUB2 (OTUB2A) (Homo sapiens, UniProt Q96DC9).
T2 construct: full length residues 1-234, E. coli BL21(DE3)-R3, His tag removed by TEV, construct 27312 Da
T2 sequence (Q96DC9 1-234): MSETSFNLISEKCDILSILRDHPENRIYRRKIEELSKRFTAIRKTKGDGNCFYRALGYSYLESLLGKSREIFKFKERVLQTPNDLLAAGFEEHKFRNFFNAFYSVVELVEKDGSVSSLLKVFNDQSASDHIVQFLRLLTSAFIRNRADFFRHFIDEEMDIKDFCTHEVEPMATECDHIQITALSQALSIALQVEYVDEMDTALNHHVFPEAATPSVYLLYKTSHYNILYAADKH
On the set-up: Intact protein LC/MS covalent labelling, fragments in pools of five, 200 uM each, 4 °C. The settings on record: 24 h, 4 °C, pool of five; 200 µM; covalent.

For data set [3], the target named is T3, BSA (Bos taurus, UniProt P02769).
T3 construct: gene ALB
T3 sequence (P02769 whole entry): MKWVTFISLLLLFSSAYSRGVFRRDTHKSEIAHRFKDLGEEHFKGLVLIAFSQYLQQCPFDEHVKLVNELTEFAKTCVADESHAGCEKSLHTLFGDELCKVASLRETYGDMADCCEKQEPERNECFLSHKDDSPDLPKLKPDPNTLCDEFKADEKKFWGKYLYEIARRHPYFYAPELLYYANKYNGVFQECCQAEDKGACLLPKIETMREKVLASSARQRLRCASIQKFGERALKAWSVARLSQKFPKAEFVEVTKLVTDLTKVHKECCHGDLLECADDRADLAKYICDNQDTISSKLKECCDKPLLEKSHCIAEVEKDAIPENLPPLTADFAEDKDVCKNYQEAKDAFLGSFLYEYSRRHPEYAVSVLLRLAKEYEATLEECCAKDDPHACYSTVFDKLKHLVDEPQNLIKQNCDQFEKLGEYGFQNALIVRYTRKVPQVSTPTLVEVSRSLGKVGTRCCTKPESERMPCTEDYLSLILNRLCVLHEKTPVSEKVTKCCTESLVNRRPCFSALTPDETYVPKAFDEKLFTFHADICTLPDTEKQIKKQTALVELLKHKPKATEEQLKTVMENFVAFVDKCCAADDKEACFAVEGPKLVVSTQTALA
Also noted: Intact protein LC/MS covalent labelling, fragments in pools of five, 200 uM each, 4 °C. The settings on record: 24 h, 4 °C, pool of five; 200 µM; covalent.

Data set [4] addresses T4, NUDT7 (Homo sapiens, UniProt P0C024).
T4 construct: residues 14-235, E. coli, pNIC28-Bsa4, N-terminal His6 tag removed by TEV, construct 26672 Da
Also noted: Intact protein LC/MS covalent labelling, fragments in pools of five, 200 uM each, 4 °C. The settings on record: 24 h, 4 °C, pool of five; 200 µM; covalent.

A short description of data set [5]: in vitro. Also noted: species or system HB2, CCD841. The settings on record: human, hek293 cells.
Data set [6] in a line: in vitro. On the set-up: species or system CCD841, HEK293. Particulars: human, hb2 cells, read-out: HB-2 Cells Viability (%).
Data set [7] is described as follows: in vitro. Also noted: species or system HB2, HEK293. Particulars: human, ccd841 cells.

Like-named read-outs stand apart in the source and are kept apart here.

This is an account of results in paper PMC6556873, “Rapid Covalent-Probe Discovery by Electrophile-Fragment Screening” (Journal of the American Chemical Society, 2019).

By viability is commonly meant a read-out of living cells in per cent, often relative to untreated cells.

T1 sequence (Q92831 whole entry): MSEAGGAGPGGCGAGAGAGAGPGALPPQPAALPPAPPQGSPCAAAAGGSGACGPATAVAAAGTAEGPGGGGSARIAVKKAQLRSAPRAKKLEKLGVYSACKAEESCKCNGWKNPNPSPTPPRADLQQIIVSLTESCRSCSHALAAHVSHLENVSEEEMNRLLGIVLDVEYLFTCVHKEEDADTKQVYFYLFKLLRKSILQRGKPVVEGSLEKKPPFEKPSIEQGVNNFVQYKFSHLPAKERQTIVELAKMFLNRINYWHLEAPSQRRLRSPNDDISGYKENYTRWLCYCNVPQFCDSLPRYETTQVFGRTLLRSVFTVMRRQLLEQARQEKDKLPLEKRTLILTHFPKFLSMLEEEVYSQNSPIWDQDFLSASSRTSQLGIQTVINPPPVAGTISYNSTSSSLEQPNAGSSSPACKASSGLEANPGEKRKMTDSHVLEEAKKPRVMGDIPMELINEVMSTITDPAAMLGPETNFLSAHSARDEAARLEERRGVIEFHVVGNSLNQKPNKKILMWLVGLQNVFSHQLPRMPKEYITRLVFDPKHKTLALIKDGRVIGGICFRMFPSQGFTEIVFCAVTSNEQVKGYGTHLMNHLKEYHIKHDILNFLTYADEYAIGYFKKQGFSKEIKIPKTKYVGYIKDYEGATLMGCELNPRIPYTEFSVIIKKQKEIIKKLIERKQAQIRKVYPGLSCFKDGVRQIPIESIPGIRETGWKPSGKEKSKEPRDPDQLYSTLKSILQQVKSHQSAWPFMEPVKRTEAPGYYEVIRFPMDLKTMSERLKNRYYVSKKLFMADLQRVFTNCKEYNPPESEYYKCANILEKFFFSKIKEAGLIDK
T4 sequence (P0C024 14-235): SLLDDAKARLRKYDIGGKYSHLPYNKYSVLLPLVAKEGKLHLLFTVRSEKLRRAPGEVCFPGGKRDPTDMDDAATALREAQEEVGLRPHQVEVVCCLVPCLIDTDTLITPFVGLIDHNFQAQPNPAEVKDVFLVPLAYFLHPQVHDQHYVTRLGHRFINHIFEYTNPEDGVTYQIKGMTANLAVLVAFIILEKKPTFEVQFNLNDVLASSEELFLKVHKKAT

In data set [1], `C=CC(=O)NCc1cc2sccc2s1` [PCM-0102986] yielded a PCAF of 0. Moreover, the OTUB2 in data set [2] is 0.08. This compound returned a BSA in data set [3] of 0. This compound returned an NUDT7 in data set [4] of 0. For the same compound, the viability at 48 h, 10 µM amounted to 78.6% in data set [5], 98.7% in data set [6] and 111% in data set [7].

`C=CC(=O)N1CCc2c([nH]c3ccccc23)C1` [PCM-0102650] returned a PCAF in data set [1] of 0. Also, the OTUB2 in data set [2] is given as 0. The compound also returned a BSA in data set [3] of 0. The NUDT7 in data set [4] stood at 0.14. In addition, the viability at 48 h, 10 µM was 85.6% in data set [5], 100% in data set [6] and 107% in data set [7].

Regarding `O=C(CCl)Nc1ccc(I)cc1` [PCM-0102278], the PCAF in data set [1] was found to be 0. Also, the OTUB2 in data set [2] is recorded as 0.24. The BSA in data set [3] is reported as 0.09. This compound returned an NUDT7 in data set [4] of 0.09. For the same compound, the viability at 48 h, 10 µM in data set [5] is 4.9%; in data set [6], 18.7%; in data set [7], 57.1%.

Turning to `C=CC(=O)N1CCC2(CC1)CNC(=O)C2` [PCM-0102690], the PCAF in data set [1] worked out at 0. The compound also registered an OTUB2 in data set [2] of 0. Moreover, in data set [3], the BSA is listed as 0. This compound also showed an NUDT7 in data set [4] of 0. The viability at 48 h, 10 µM in data set [5] is 95.1%; in data set [6], 100%; in data set [7], 107%.

On to `O=C(CCl)N1CCN(S(=O)(=O)c2ccccc2Cl)CC1` [PCM-0102837], for which the PCAF in data set [1] is on record as 0. Besides, the OTUB2 in data set [2] is reported as 0. Further, the BSA in data set [3] turned out to be 0. The same compound registered an NUDT7 in data set [4] of 0.18. The results for the viability at 48 h, 10 µM in data set [5], in data set [6] and in data set [7] were 6%, 4.7% and 46.9%, respectively.

In data set [1], `O=C(O)C1Cc2ccccc2CN1C(=O)CCl` (stereo not drawn) [PCM-0102761] returned a PCAF of 0. This compound yielded an OTUB2 in data set [2] of 0. The BSA in data set [3] stood at 0. In data set [4], this compound displayed an NUDT7 of 0.21. In addition, the viability at 48 h, 10 µM in data set [5] was 95.9%; in data set [6], 98.1%; in data set [7] it was 91.2%.

`O=C(CCl)NC1CCN(C(=O)c2ccco2)CC1` [PCM-0102619]: the PCAF in data set [1] stood at 0. The same compound had an OTUB2 in data set [2] of 0.1. Besides, the BSA in data set [3] came out at 0. This compound registered an NUDT7 in data set [4] of 0. Further, the figures for the viability at 48 h, 10 µM in data set [5], in data set [6] and in data set [7] were 84.6%, 105% and 101%, respectively.

Consider `C=CC(=O)N1CCC(NC(=O)c2ccncc2)CC1` [PCM-0102595], for which the PCAF in data set [1] is 0. In addition, the OTUB2 in data set [2] stood at 0. In data set [3], the BSA is 0. The same compound registered an NUDT7 in data set [4] of 0. Further, the figures for the viability at 48 h, 10 µM in data set [5], in data set [6] and in data set [7] were 94.7%, 102% and 102%, respectively.

Compound `O=C(CCl)Nc1cc(C(=O)O)ccc1Cl` [PCM-0102590] came in with a PCAF in data set [1] of 0. The compound also gave an OTUB2 in data set [2] of 0. The same compound came in with a BSA in data set [3] of 0. The compound also returned an NUDT7 in data set [4] of 0. For the same compound, the viability at 48 h, 10 µM was 110% in data set [5], 103% in data set [6] and 102% in data set [7].

Compound `CN(C(=O)CCl)c1nc2ccccc2s1` [PCM-0102894] gave a PCAF in data set [1] of 0. The OTUB2 in data set [2] is 0. In data set [3], this compound had a BSA of 0. Further, the NUDT7 in data set [4] was determined as 0.34. For the same compound, the viability at 48 h, 10 µM in data set [5] was determined as 87.7%; in data set [6] it was 88.4%; in data set [7], 83.6%.

In data set [1], `O=C(CCl)Nc1nc(-c2ccc(F)c(F)c2)cs1` [PCM-0102244] had a PCAF of 0. In data set [2], this compound displayed an OTUB2 of 0.29. The compound also gave a BSA in data set [3] of 0.15. Besides, in data set [4], the NUDT7 amounted to 0.53. For the same compound, the viability at 48 h, 10 µM amounted to 0.9% in data set [5], 6.9% in data set [6] and 76.5% in data set [7].

For `Cc1ccc(-n2nc(C)c(NC(=O)CCl)c2C)cc1` [PCM-0102131], the PCAF in data set [1] is given as 0. The compound further came in with an OTUB2 in data set [2] of 0. The compound also displayed a BSA in data set [3] of 0. For the same compound, in data set [4], the NUDT7 came to 0. Moreover, the viability at 48 h, 10 µM in data set [5] came out at 30.1%; in data set [6] it was 63.8%; in data set [7], 26.3%.

In data set [1], `O=C(CCl)N1CCCCCCC1` [PCM-0102377] gave a PCAF of 0. This compound yielded an OTUB2 in data set [2] of 0. In addition, the BSA in data set [3] is listed as 0. In data set [4], this compound displayed an NUDT7 of 0. The viability at 48 h, 10 µM stood at 43.5% in data set [5], 36.7% in data set [6] and 82.1% in data set [7].

In data set [1], `Cc1c(C#N)c(NC(=O)CCl)n(C2CCCC2)c1C` [PCM-0102183] returned a PCAF of 0. In addition, in data set [2], the OTUB2 is recorded as 0. Also, the BSA in data set [3] came out at 0. In addition, the NUDT7 in data set [4] stood at 0.28. Also, the viability at 48 h, 10 µM worked out at 9.1% in data set [5], 23.9% in data set [6] and 56.1% in data set [7].

`COC(=O)c1c(NC(=O)CCl)sc2c1CCCC2` [PCM-0102143] had a PCAF in data set [1] of 0. In data set [2], this compound returned an OTUB2 of 0.05. For the same compound, in data set [3], the BSA is reported as 0. This compound showed an NUDT7 in data set [4] of 0.39. Further, the viability at 48 h, 10 µM in data set [5] was 8.6%; in data set [6] it was 31.6%; in data set [7], 68.1%.

The compound `N#Cc1ccc(Cl)cc1NC(=O)CCl` [PCM-0102700] yielded a PCAF in data set [1] of 0. The OTUB2 in data set [2] was 0.17. This compound gave a BSA in data set [3] of 0. Moreover, the NUDT7 in data set [4] is on record as 0.4. Also, the viability at 48 h, 10 µM worked out at 64.8% in data set [5], 57.6% in data set [6] and 68.1% in data set [7].

For `O=C(CCl)NC(=O)NC12CC3CC(CC(C3)C1)C2` [PCM-0102360], the PCAF in data set [1] turned out to be 0. Further, the OTUB2 in data set [2] stood at 0.12. Moreover, the BSA in data set [3] stood at 0. In data set [4], this compound gave an NUDT7 of 0. In addition, the viability at 48 h, 10 µM in data set [5] was 46.7%; in data set [6], 3.1%; in data set [7], 73.7%.

`C=CC(=O)NCC1COc2ccccc2O1` (stereo not drawn) [PCM-0102713] gave a PCAF in data set [1] of 0. Further, the OTUB2 in data set [2] was determined as 0. Further, in data set [3], the BSA was found to be 0. This compound also returned an NUDT7 in data set [4] of 0.16. Besides, the viability at 48 h, 10 µM was found to be 76.1% in data set [5], 99% in data set [6] and 102% in data set [7].

`C=CC(=O)N1CC(c2nc(C)no2)C1` [PCM-0102599] displayed a PCAF in data set [1] of 0. Besides, the OTUB2 in data set [2] is listed as 0. This compound displayed a BSA in data set [3] of 0. This compound registered an NUDT7 in data set [4] of 0. Also, the viability at 48 h, 10 µM in data set [5] was 90.9%; in data set [6], 108%; in data set [7], 102%.

`CN(C)C(=O)c1ccc(NC(=O)CCl)cc1` [PCM-0102877] returned a PCAF in data set [1] of 0. In data set [2], this compound returned an OTUB2 of 0. Also, the BSA in data set [3] stood at 0. In data set [4], this compound returned an NUDT7 of 0. Moreover, the viability at 48 h, 10 µM came out at 30.5% in data set [5], 67.6% in data set [6] and 61.7% in data set [7].

`O=C(CCl)N1CCN(S(=O)(=O)c2ccccc2)CC1` [PCM-0102468] had a PCAF in data set [1] of 0. This compound came in with an OTUB2 in data set [2] of 0.08. In data set [3], this compound came in with a BSA of 0. In addition, the NUDT7 in data set [4] stood at 0. Also, the viability at 48 h, 10 µM in data set [5] worked out at 15%; in data set [6] it was 12.6%; in data set [7], 54.9%.

For the compound `Cc1n[nH]c(=O)c2c(NC(=O)CCl)oc(C)c12` [PCM-0102226], the PCAF in data set [1] was determined as 0. Besides, in data set [2], the OTUB2 is listed as 0. This compound showed a BSA in data set [3] of 0. This compound returned an NUDT7 in data set [4] of 0. For the same compound, the viability at 48 h, 10 µM in data set [5] is 104%; in data set [6], 108%; in data set [7], 112%.

With `O=C(CCl)NCc1ccco1` [PCM-0102671], in data set [1], the PCAF is on record as 0. Moreover, the OTUB2 in data set [2] was found to be 0.35. The same compound registered a BSA in data set [3] of 0. This compound also yielded an NUDT7 in data set [4] of 0. Moreover, the results for the viability at 48 h, 10 µM in data set [5], in data set [6] and in data set [7] were 86.2%, 102% and 86%, respectively.

Take `C=CC(=O)N1CCC(C(=O)N2CCN(C(C)=O)CC2)CC1` [PCM-0102593]: the PCAF in data set [1] is listed as 0. In data set [2], this compound came in with an OTUB2 of 0. This compound also registered a BSA in data set [3] of 0. Moreover, in data set [4], the NUDT7 turned out to be 0. Further, the viability at 48 h, 10 µM in data set [5] worked out at 105%; in data set [6], 98.3%; in data set [7], 111%.
